Results reported in PubChem BioAssay AID1919016 (Molecular Pharmacology Branch, DTP, NCI, 2023).

Tested on: NCI-H196 complex spheroid growth, percent test/control
Assay: Anticancer human tumor NCI-H196 cell line growth inhibition [AhR];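 also: seven days of drug exposure starting three days after plating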;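 as to viability, T/C: 100% = DMSO vehicle control wells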
Conditions: for IC50: curve of first compound; for viability, T/C: stronger effect = lower value
How it was run: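 Complex tumor spheroids co-cultured with HUVEC and human MSC stroma; AhR antagonists tested in combination with standard-of-care and investigational agents. Top concentration at or near clinical Cmax (else 10 microM), half-log dilutions; growth expressed as percent test/control.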

[1] = second compound 0.1 µM, first compound 0.0316 µM
[2] = second compound 0.1 µM, first compound 0.1 µM
[3] = second compound 0.1 µM, first compound 0.316 µM
[4] = second compound 0.1 µM, first compound 1 µM
[5] = second compound 0.1 µM, first compound 3.16 µM
[6] = second compound 0.1 µM, first compound 10 µM
[7] = second compound 0.316 µM, first compound 0.0316 µM
[8] = second compound 0.316 µM, first compound 0.1 µM
[9] = second compound 0.316 µM, first compound 0.316 µM
[10] = second compound 0.316 µM, first compound 1 µM
[11] = second compound 0.316 µM, first compound 3.16 µM
[12] = second compound 0.316 µM, first compound 10 µM
[13] = second compound 1 µM, first compound 0.0316 µM
[14] = second compound 1 µM, first compound 0.1 µM
[15] = second compound 1 µM, first compound 0.316 µM
[16] = second compound 1 µM, first compound 1 µM
[17] = second compound 1 µM, first compound 3.16 µM
[18] = second compound 1 µM, first compound 10 µM
[19] = second compound 3.16 µM, first compound 0.0316 µM
[20] = second compound 3.16 µM, first compound 0.1 µM
[21] = second compound 3.16 µM, first compound 0.316 µM
[22] = second compound 3.16 µM, first compound 1 µM
[23] = second compound 3.16 µM, first compound 3.16 µM
[24] = second compound 3.16 µM, first compound 10 µM
[25] = second compound 10 µM, first compound 0.0316 µM
[26] = second compound 10 µM, first compound 0.1 µM
[27] = second compound 10 µM, first compound 0.316 µM
[28] = second compound 10 µM, first compound 1 µM
[29] = second compound 10 µM, first compound 3.16 µM
[30] = second compound 10 µM, first compound 10 µM

Compound: COc1cccc2c1C(=O)c1c(O)c3c(c(O)c1C2=O)CC(O)(C(=O)CO)CC3OC1CC(N)C(O)C(C)O1 (stereo not given) + CC(CO)NC(=O)c1cc(-c2ccc(Cl)cc2)nn(-c2cnn(C)c2)c1=O
- IC50 (second compound 0.1 µM): 943 nM
- IC50 (second compound 0.316 µM): 1080 nM
- IC50 (second compound 1 µM): 967 nM
- IC50 (second compound 3.16 µM): 895 nM
- IC50 (second compound 10 µM): 732 nM
- viability, T/C [1]: 109%
- viability, T/C [2]: 105%
- viability, T/C [3]: 85.6%
- viability, T/C [4]: 52.8%
- viability, T/C [5]: 1.78%
- viability, T/C [6]: 0.87%
- viability, T/C [7]: 102%
- viability, T/C [8]: 116%
- viability, T/C [9]: 100%
- viability, T/C [10]: 53.8%
- viability, T/C [11]: 1.55%
- viability, T/C [12]: 1.77%
- viability, T/C [13]: 110%
- viability, T/C [14]: 116%
- viability, T/C [15]: 101%
- viability, T/C [16]: 49.6%
- viability, T/C [17]: 1.06%
- viability, T/C [18]: 2.36%
- viability, T/C [19]: 113%
- viability, T/C [20]: 110%
- viability, T/C [21]: 104%
- viability, T/C [22]: 44.4%
- viability, T/C [23]: 0.77%
- viability, T/C [24]: 1.04%
- viability, T/C [25]: 119%
- viability, T/C [26]: 122%
- viability, T/C [27]: 89.9%
- viability, T/C [28]: 36.6%
- viability, T/C [29]: 0.56%
- viability, T/C [30]: 2.67%

Compound: COc1ccc([C@@H](O)c2cc(-c3ncnc4cc(N5CCOCC5)ccc34)c(F)cc2Cl)nn1 + CC(CO)NC(=O)c1cc(-c2ccc(Cl)cc2)nn(-c2cnn(C)c2)c1=O
- IC50 (second compound 0.1 µM): > 10000 nM
- IC50 (second compound 0.316 µM): > 10000 nM
- IC50 (second compound 1 µM): > 10000 nM
- IC50 (second compound 3.16 µM): > 10000 nM
- IC50 (second compound 10 µM): > 10000 nM
- viability, T/C [1]: 102%
- viability, T/C [2]: 91.2%
- viability, T/C [3]: 94.5%
- viability, T/C [4]: 80.3%
- viability, T/C [5]: 75.6%
- viability, T/C [6]: 82.4%
- viability, T/C [7]: 109%
- viability, T/C [8]: 100%
- viability, T/C [9]: 94.9%
- viability, T/C [10]: 83.3%
- viability, T/C [11]: 80.2%
- viability, T/C [12]: 75.8%
- viability, T/C [13]: 107%
- viability, T/C [14]: 106%
- viability, T/C [15]: 102%
- viability, T/C [16]: 89.3%
- viability, T/C [17]: 77%
- viability, T/C [18]: 72.8%
- viability, T/C [19]: 108%
- viability, T/C [20]: 113%
- viability, T/C [21]: 114%
- viability, T/C [22]: 96.1%
- viability, T/C [23]: 84.1%
- viability, T/C [24]: 78.7%
- viability, T/C [25]: 115%
- viability, T/C [26]: 104%
- viability, T/C [27]: 95.4%
- viability, T/C [28]: 84.5%
- viability, T/C [29]: 75.8%
- viability, T/C [30]: 72.3%

Compound: CCc1c2c(nc3ccc(O)cc13)-c1cc3c(c(=O)n1C2)COC(=O)[C@]3(O)CC + Cc1cncc(-c2nc(NCCc3c[nH]c4ccccc34)c3ncn(C(C)C)c3n2)c1
- IC50 (second compound 0.1 µM): > 300 nM
- IC50 (second compound 0.316 µM): > 300 nM
- IC50 (second compound 1 µM): > 300 nM
- IC50 (second compound 3.16 µM): > 300 nM
- IC50 (second compound 10 µM): 104 nM
- viability, T/C (second compound 0.1 µM, first compound 0.000949 µM): 99.9%
- viability, T/C (second compound 0.1 µM, first compound 0.003 µM): 102%
- viability, T/C (second compound 0.1 µM, first compound 0.00949 µM): 104%
- viability, T/C (second compound 0.1 µM, first compound 0.03 µM): 102%
- viability, T/C (second compound 0.1 µM, first compound 0.0949 µM): 87.6%
- viability, T/C (second compound 0.1 µM, first compound 0.3 µM): 78.5%
- viability, T/C (second compound 0.316 µM, first compound 0.000949 µM): 91.3%
- viability, T/C (second compound 0.316 µM, first compound 0.003 µM): 91.9%
- viability, T/C (second compound 0.316 µM, first compound 0.00949 µM): 96%
- viability, T/C (second compound 0.316 µM, first compound 0.03 µM): 100%
- viability, T/C (second compound 0.316 µM, first compound 0.0949 µM): 77.2%
- viability, T/C (second compound 0.316 µM, first compound 0.3 µM): 74.2%
- viability, T/C (second compound 1 µM, first compound 0.000949 µM): 99.3%
- viability, T/C (second compound 1 µM, first compound 0.003 µM): 109%
- viability, T/C (second compound 1 µM, first compound 0.00949 µM): 116%
- viability, T/C (second compound 1 µM, first compound 0.03 µM): 102%
- viability, T/C (second compound 1 µM, first compound 0.0949 µM): 96.9%
- viability, T/C (second compound 1 µM, first compound 0.3 µM): 57.8%
- viability, T/C (second compound 3.16 µM, first compound 0.000949 µM): 96.9%
- viability, T/C (second compound 3.16 µM, first compound 0.003 µM): 102%
- viability, T/C (second compound 3.16 µM, first compound 0.00949 µM): 92.4%
- viability, T/C (second compound 3.16 µM, first compound 0.03 µM): 85.6%
- viability, T/C (second compound 3.16 µM, first compound 0.0949 µM): 86.7%
- viability, T/C (second compound 3.16 µM, first compound 0.3 µM): 52.5%
- viability, T/C (second compound 10 µM, first compound 0.000949 µM): 82.9%
- viability, T/C (second compound 10 µM, first compound 0.003 µM): 88.5%
- viability, T/C (second compound 10 µM, first compound 0.00949 µM): 90%
- viability, T/C (second compound 10 µM, first compound 0.03 µM): 65.5%
- viability, T/C (second compound 10 µM, first compound 0.0949 µM): 54.6%
- viability, T/C (second compound 10 µM, first compound 0.3 µM): 30.5%

Compound: COc1ccc([C@@H](O)c2cc(-c3ncnc4cc(N5CCOCC5)ccc34)c(F)cc2Cl)nn1 + Cc1cncc(-c2nc(NCCc3c[nH]c4ccccc34)c3ncn(C(C)C)c3n2)c1
- IC50 (second compound 0.1 µM): > 10000 nM
- IC50 (second compound 0.316 µM): > 10000 nM
- IC50 (second compound 1 µM): > 10000 nM
- IC50 (second compound 3.16 µM): > 10000 nM
- IC50 (second compound 10 µM): > 10000 nM
- viability, T/C [1]: 102%
- viability, T/C [2]: 101%
- viability, T/C [3]: 97%
- viability, T/C [4]: 91.4%
- viability, T/C [5]: 78.7%
- viability, T/C [6]: 84.7%
- viability, T/C [7]: 95.3%
- viability, T/C [8]: 99.6%
- viability, T/C [9]: 101%
- viability, T/C [10]: 97.7%
- viability, T/C [11]: 92.6%
- viability, T/C [12]: 80.7%
- viability, T/C [13]: 104%
- viability, T/C [14]: 111%
- viability, T/C [15]: 97.6%
- viability, T/C [16]: 87.3%
- viability, T/C [17]: 95.5%
- viability, T/C [18]: 84%
- viability, T/C [19]: 105%
- viability, T/C [20]: 108%
- viability, T/C [21]: 106%
- viability, T/C [22]: 94.2%
- viability, T/C [23]: 94%
- viability, T/C [24]: 94.2%
- viability, T/C [25]: 69.8%
- viability, T/C [26]: 90.4%
- viability, T/C [27]: 92.2%
- viability, T/C [28]: 77.7%
- viability, T/C [29]: 77.8%
- viability, T/C [30]: 71%

Compound: Cn1ncnc1C1c2n[nH]c(=O)c3cc(F)cc(c23)NC1c1ccc(F)cc1 (stereo not given) + Cc1ccccc1N=Nc1ccc(NC(=O)c2ccnn2C)c(C)c1
- IC50 (second compound 0.1 µM): > 100 nM
- IC50 (second compound 0.316 µM): > 100 nM
- IC50 (second compound 1 µM): > 100 nM
- IC50 (second compound 3.16 µM): > 100 nM
- IC50 (second compound 10 µM): > 100 nM
- viability, T/C (second compound 0.1 µM, first compound 0.000316 µM): 96.3%
- viability, T/C (second compound 0.1 µM, first compound 0.001 µM): 112%
- viability, T/C (second compound 0.1 µM, first compound 0.00316 µM): 105%
- viability, T/C (second compound 0.1 µM, first compound 0.01 µM): 101%
- viability, T/C [1]: 102%
- viability, T/C [2]: 103%
- viability, T/C (second compound 0.316 µM, first compound 0.000316 µM): 108%
- viability, T/C (second compound 0.316 µM, first compound 0.001 µM): 107%
- viability, T/C (second compound 0.316 µM, first compound 0.00316 µM): 108%
- viability, T/C (second compound 0.316 µM, first compound 0.01 µM): 106%
- viability, T/C [7]: 101%
- viability, T/C [8]: 104%
- viability, T/C (second compound 1 µM, first compound 0.000316 µM): 102%
- viability, T/C (second compound 1 µM, first compound 0.001 µM): 102%
- viability, T/C (second compound 1 µM, first compound 0.00316 µM): 109%
- viability, T/C (second compound 1 µM, first compound 0.01 µM): 107%
- viability, T/C [13]: 102%
- viability, T/C [14]: 106%
- viability, T/C (second compound 3.16 µM, first compound 0.000316 µM): 94.2%
- viability, T/C (second compound 3.16 µM, first compound 0.001 µM): 108%
- viability, T/C (second compound 3.16 µM, first compound 0.00316 µM): 112%
- viability, T/C (second compound 3.16 µM, first compound 0.01 µM): 98.2%
- viability, T/C [19]: 93.5%
- viability, T/C [20]: 102%
- viability, T/C (second compound 10 µM, first compound 0.000316 µM): 94.2%
- viability, T/C (second compound 10 µM, first compound 0.001 µM): 102%
- viability, T/C (second compound 10 µM, first compound 0.00316 µM): 96.7%
- viability, T/C (second compound 10 µM, first compound 0.01 µM): 94.7%
- viability, T/C [25]: 92.8%
- viability, T/C [26]: 92.6%
